One block for each molecule: values may come before it. Peptide text beside a SMILES is read from it.
Columns and labels:
[1] = system: ATCC strains; details: 18 h
Text: (§1) A total of 18 bacterial strains relevant to orthopedic infections were used for microbiological tests, including 8 ATCC (American Type Culture Collection, ATCC, Manassas, VA, USA) and 10 clinical isolates (CI) from the Laboratory of Clinical Chemistry and Microbiology, IRCCS Ospedale Galeazzi–Sant’Ambrogio of Milan (Italy) strain collection. The ATCC strains were used for the first screening (MIC/MBC) of all the AMPs produced, while the clinical isolates were used for further MIC/MBC assays on selected AMPs. Among CI, S. epidermidis GOI1153754-03-14 has been already characterized and used in previous studies. All the strains were stocked at −80°C and working stocks were stored at −20 °C. At the occurrence, the bacteria were resuscitated in Brain Hearth Infusion (BHI, Millipore, Milan, Italy) broth at 37 °C for 18 h from the working stocks.
(§2) To determine the minimum inhibitory concentration (MIC) and the minimum bactericidal concentration (MBC), ISO20776-1 and Clinical and Laboratory Standards Institute guidelines were followed. A commercial synthetic LL-37 (Aurogene, Rome, Italy) was used as the control in the MIC and MBC assays. A stock solution of each AMP was prepared at 600 µg/mL to achieve a final concentration of 300 µg/mL. […] The MIC was determined according to the aforementioned standard guidelines. The MBC was determined by plating 2 µL of culture from each well of the MIC plates on a Tryptic Soy Agar (TSA, Millipore, Milan, Italy) plate and incubated for 24 h at 37 °C. The concentration at which there was no growth was recorded as MBC. Each experiment was carried out in triplicate. Representative MIC and MBC values for vancomycin and gentamicin were assessed to offer a benchmark comparison for the AMPs. Quality control was conducted with Staphylococcus aureus ATCC 29,213 and vancomycin according to EUCAST guidelines.

[2] = system: S. epidermidis ATCC 14990; assay: microbe, parasite or virus in culture; details: for Minimum Inhibitory Concentration (MIC): ATCC 14990, 18 h; for Minimum Bactericidal Concentration (MBC): ATCC 14990, 24 h
Text: as §1, §2

[3] = system: S. aureus ATCC 25923; assay: microbe, parasite or virus in culture; details: for Minimum Inhibitory Concentration (MIC): ATCC 25923, 18 h; for Minimum Bactericidal Concentration (MBC): ATCC 25923, 24 h
Text: as §1, §2

[4] = system: P. aeruginosa ATCC 27853; assay: microbe, parasite or virus in culture; details: for Minimum Inhibitory Concentration (MIC): ATCC 27853, 18 h; for Minimum Bactericidal Concentration (MBC): ATCC 27853, 24 h
Text: as §1, §2

[5] = system: S. aureus ATCC 43300; assay: microbe, parasite or virus in culture; details: for Minimum Inhibitory Concentration (MIC): ATCC 43300, 18 h; for Minimum Bactericidal Concentration (MBC): ATCC 43300, 24 h
Text: as §1, §2

[6] = system: S. epidermidis ATCC 35984; assay: microbe, parasite or virus in culture; details: for Minimum Inhibitory Concentration (MIC): ATCC 35984, 18 h; for Minimum Bactericidal Concentration (MBC): ATCC 35984, 24 h
Text: as §1, §2

[7] = system: E. coli ATCC 25922; assay: microbe, parasite or virus in culture; details: for Minimum Inhibitory Concentration (MIC): ATCC 25922, 18 h; for Minimum Bactericidal Concentration (MBC): ATCC 25922, 24 h
Text: as §1, §2

[8] = system: S. aureus ATCC 49230; assay: microbe, parasite or virus in culture; details: for Minimum Inhibitory Concentration (MIC): ATCC 49230, 18 h; for Minimum Bactericidal Concentration (MBC): ATCC 49230, 24 h
Text: as §1, §2

[9] = system: red blood cells (RBC); assay: Hemolytic activity assessment; type: cell-based; details: at 18.75 µg/mL; human RBC suspension in PBS, 1 h 37 °C, absorbance 414 nm; 0.1% Triton-X100 = 100%
Protocol: The pellet containing erythrocytes was washed 3 times in PBS centrifuging at 700× g for 8 min at RT. Finally, 40 µL of pellet containing red blood cells (RBC) was diluted in 8 mL of PBS, obtaining a 0.5% v/v RBC suspension.
The 96-well V plate was incubated at 37 °C for 1 h, then centrifuged at 1000× g for 10 min, and the supernatant (60 µL) was transferred to a 96-well flat bottom microplate for the absorption analysis on a microplate reader at 414 nm. The positive control (PC, 100% hemolysis) consisted of 0.1% Triton-X100 in PBS (pH 7.4), while PBS alone served as the negative control (NC, 0% hemolysis). Each hemolysis activity assessment test was carried out in two replicates and repeated three times.
NCs and PCs were averaged, then results were normalized to the average of PC and NC according to the following formula: % Hemolysis = (Abs treated − Abs NC/Abs PC − Abs NC) × 100. The hemolytic activity was also tested on TFA to exclude any toxicity caused by the buffer.

[10] = system: S. aureus Sau221 (CI); details: Sau221 (CI, 18 h)
Text: as §1, §2

[11] = system: E. coli Eco53 (CI); details: Eco53 (CI, 18 h)
Text: as §1, §2

[12] = system: E. coli Eco61 (CI); details: Eco61 (CI, 18 h)
Text: as §1, §2

[13] = system: S. aureus Sau89 (CI); details: Sau89 (CI, 18 h)
Text: as §1, §2

[14] = system: P. aeruginosa Pae82 (CI); details: Pae82 (CI, 18 h)
Text: as §1, §2

[15] = system: Staphylococci; details: 18 h
Text: as §1, §2

[16] = system: P. aeruginosa Pae2 (CI); details: Pae2 (CI, 18 h)
Text: as §1, §2

[17] = system: S. aureus Sau39 (CI); details: Sau39 (CI, 18 h)
Text: as §1, §2

[18] = system: P. aeruginosa Pae61 (CI); details: Pae61 (CI, 18 h)
Text: as §1, §2

[19] = system: E. coli Eco75 (CI); details: Eco75 (CI, 18 h)
Text: as §1, §2

[20] = system: S. epidermidis GOI1153754-03-14 (CI); assay: microbe, parasite or virus in culture; details: GOI1153754-03-14 (CI, 18 h)
Text: as §1, §2

Minimum Inhibitory Concentration (MIC) [2]: 150.00 µg/mL
Minimum Inhibitory Concentration (MIC) [3]: 300.00 µg/mL
Minimum Inhibitory Concentration (MIC) [4]: 300.00 µg/mL
Minimum Inhibitory Concentration (MIC) [5]: 300.00 µg/mL
Minimum Inhibitory Concentration (MIC) [6]: 150.00 µg/mL
Minimum Inhibitory Concentration (MIC) [7]: 75.00 µg/mL
Minimum Inhibitory Concentration (MIC) [8]: >300.00 µg/mL
SMILES: CC[C@H](C)[C@H](NC(=O)[C@H](CCCNC(=N)N)NC(=O)[C@H](CCC(N)=O)NC(=O)[C@@H](NC(=O)[C@@H](NC(=O)[C@H](CCCNC(=N)N)NC(=O)[C@H](CCCCN)NC(=O)[C@@H](N)Cc1ccccc1)[C@@H](C)CC)C(C)C)C(=O)N[C@@H](CCCCN)C(=O)N[C@@H](CC(=O)O)C(=O)N[C@@H](Cc1ccccc1)C(=O)N[C@@H](CC(C)C)C(=O)N[C@@H](CCCNC(=N)N)C(N)=O [FK-13] (H-FKRIVQRIKDFLR-NH2)
MBC values over all ATCC strains tested [1]: greater than 300 µg/mL
Minimum Bactericidal Concentration (MBC) [2]: 150.00 µg/mL
Minimum Bactericidal Concentration (MBC) [3]: >300.00 µg/mL
Minimum Bactericidal Concentration (MBC) [4]: 300.00 µg/mL
Minimum Bactericidal Concentration (MBC) [5]: >300.00 µg/mL
Minimum Bactericidal Concentration (MBC) [6]: 150.00 µg/mL
Minimum Bactericidal Concentration (MBC) [7]: 150.00 µg/mL
Minimum Bactericidal Concentration (MBC) [8]: >300.00 µg/mL

Minimum Inhibitory Concentration (MIC) [10]: 9.38 µg/mL
Minimum Inhibitory Concentration (MIC) [11]: 18.75 µg/mL
Minimum Inhibitory Concentration (MIC) [12]: 9.38 µg/mL
Minimum Inhibitory Concentration (MIC) [13]: 4.69 µg/mL
Minimum Inhibitory Concentration (MIC) [14]: 75.00 µg/mL
Minimum Inhibitory Concentration (MIC) [16]: 150.00 µg/mL
Minimum Inhibitory Concentration (MIC) [17]: 2.34 µg/mL
Minimum Inhibitory Concentration (MIC) [18]: 37.50 µg/mL
Minimum Inhibitory Concentration (MIC) [19]: 18.75 µg/mL
Minimum Inhibitory Concentration (MIC) [2]: 4.69 µg/mL
Minimum Inhibitory Concentration (MIC) [3]: 2.34 µg/mL
Minimum Inhibitory Concentration (MIC) [4]: 18.75 µg/mL
Minimum Inhibitory Concentration (MIC) [5]: 4.69 µg/mL
Minimum Inhibitory Concentration (MIC) [6]: 2.34 µg/mL
Minimum Inhibitory Concentration (MIC) [7]: 9.38 µg/mL
Minimum Inhibitory Concentration (MIC) [8]: 4.69 µg/mL
Minimum Inhibitory Concentration (MIC) [20]: 2.34 µg/mL
SMILES: CC[C@H](C)[C@H](NC(=O)[C@H](CCCNC(=N)N)NC(=O)[C@H](CCC(N)=O)NC(=O)[C@@H](NC(=O)[C@@H](NC(=O)[C@H](CCCNC(=N)N)NC(=O)[C@H](CCCCN)NC(=O)[C@H](Cc1ccccc1)NC(=O)CN)[C@@H](C)CC)C(C)C)C(=O)N[C@@H](CCCCN)C(=O)N[C@@H](CC(=O)O)C(=O)N[C@@H](Cc1ccccc1)C(=O)N[C@@H](CC(C)C)C(=O)N[C@@H](CCCNC(=N)N)C(=O)N[C@@H](CC(N)=O)C(=O)N[C@@H](CC(C)C)C(=O)N[C@H](C(N)=O)C(C)C [GF-17] (H-GFKRIVQRIKDFLRNLV-NH2)
Hemolytic activity [9]: below 1%
Minimum Bactericidal Concentration (MBC) [10]: 18.75 µg/mL
Minimum Bactericidal Concentration (MBC) [11]: 75.00 µg/mL
Minimum Bactericidal Concentration (MBC) [12]: 18.75 µg/mL
Minimum Bactericidal Concentration (MBC) [13]: 4.69 µg/mL
Minimum Bactericidal Concentration (MBC) [14]: 300.00 µg/mL
MBC range (bactericidal effect) against Staphylococci [15]: 4.69 to 150 µg/mL
Minimum Bactericidal Concentration (MBC) [16]: 150.00 µg/mL
Minimum Bactericidal Concentration (MBC) [17]: 9.38 µg/mL
Minimum Bactericidal Concentration (MBC) [18]: 150.00 µg/mL
Minimum Bactericidal Concentration (MBC) [19]: 75.00 µg/mL
Minimum Bactericidal Concentration (MBC) [2]: 75.00 µg/mL
Minimum Bactericidal Concentration (MBC) [3]: 37.50 µg/mL
Minimum Bactericidal Concentration (MBC) [4]: 75.00 µg/mL
Minimum Bactericidal Concentration (MBC) [5]: 150.00 µg/mL
Minimum Bactericidal Concentration (MBC) [6]: 4.69 µg/mL
Minimum Bactericidal Concentration (MBC) [7]: 300.00 µg/mL
Minimum Bactericidal Concentration (MBC) [8]: 75.00 µg/mL
Minimum Bactericidal Concentration (MBC) [20]: 37.50 µg/mL
